US11180510B2, “Xanthine derivatives and uses thereof as inhibitors of bromodomains of BET proteins” (Centre national de la recherche scientifique, priority 2017, dated 2021)
Read-outs that look alike come from different tables or passages of the source.

Legend:
[1] = tested on: c-Myc; details: known inhibitors, background statement; cited from earlier work
[2] = target: T1, Brd3(BD2) (Homo sapiens, UniProt Q15059); assay: HTRF BET selectivity profile, Brd3(BD2); format: binding
T1 construct: GST tagged bromodomain proteins were purchased from BPS Bioscience; purchased BPS Bioscience
Protocol: (§1) HTRF assays were performed in white 384 Well Small Volume™ HiBase Polystyrene Microplates (Greiner) with a total working volume of 20 μL. Compounds were dispensed, with 100 nL per well (0.5% final DMSO), from a concentration stock of 10 mM in 100% DMSO and with serial DMSO dilutions, using an Echo® 550 robot from the Access Labcyte platform (Labcyte) and based on the transfer of liquid by acoustic wave. Then, 19.5 μL of buffer is added, using a Multidrop Combi (Thermo Fisher Scientific). Finally, for each assay, 200 nL of master mix (protein+donor+acceptor) and 200 nL of peptide Is added in the assay wells according to the final concentration and buffer described in Table 3, using the Echo® 550 robot (Labcyte). The IC50 measurements were performed in triplicates (Table 2 and 3). All HTRF reagents (donor and acceptor) were purchased from CisBio Bioassays and reconstituted according to the supplier protocols. The peptide was purchased from Genic Bio Synthetic. The BRD4(1) protein was produced and purified in the laboratory. HTRF signals were measured, after a final incubation (3 h or 6 h or overnight at room temperature or 4° C., according to the bromodomain), using a PHERAstar FS (BMG Labtech) with an excitation filter at 337 nm and fluorescence wavelength measurement at 620 and 665 nm, an integration delay of 60 μs and an integration time of 500 μs. Results were analyzed with a two-wavelengths signal ratio: [intensity (665 nm)/intensity (620 nm)]*104.
(§2) Percentage of inhibition was calculated using the following equation: % inhibition=[(compound signal)−(min signal)]/[(max signal)−(min signal)]*100, where ‘max signal’ is the signal ratio with the compound vehicle alone (DMSO) and ‘min signal’ the signal ratio without peptide.
(§3) Selectivity profiles of bromodomain inhibitors were performed as described in HTRF screen section. […] HTRF detection reagents (EPIgeneous™ Binding Domain kits) were purchased from Cisbio Bioassays and used according to supplier's protocol. GST tagged bromodomain proteins were purchased from BPS Bioscience and histone peptide from Genic Bio Synthetic.

[3] = tested on: Jurkat cells; assay: Cell Titer-Glo cell viability assay, Jurkat; format: cell-based; details: Homo sapiens, 72 h, mean of three experiments, NA = IC50 > maximal concentration used
Protocol: (§4) The human leukemia cell line Jurkat (ATCC® TIB-152) and Molm14 was maintained in RPMI-1640 medium or MEMα, respectively and supplemented both with 10% FBS at 37° C. and 5% CO2.
(§5) In antiproliferative assays, compounds were assayed for their growth inhibiting activity towards the described cancer cell lines using the Cell Titer-Glo Luminescent Cell Viability Assay as described by the manufacturer (Promega Corporation). Briefly, 10.000 cells were plated onto 96 well-plates (white with clear bottom (3610, Corning Costar)) in 90 μL media per well immediately before assay. 10 μL of compounds were added at different concentrations (ranging from 50 μM to 6 nM) to each well and cell cultures were incubated 37° C. during 72 h. Vehicle (DMSO) was used as negative control, JQ1 (a pan-BET inhibitor) was used as positive control and all compounds were tested in constant percentage of DMSO (1%). After addition of 50 μL Cell Titer-GLO, shaking 2 minutes and incubating at room temperature 10 minutes, the Luminescence was measured using a Centro luminometer LB960 (Berthold). Dose-response curves were generated and effective dose 50 values (EC50) were calculated using non-linear regression analysis (Graph Pad Prism).

[4] = target: T2, Brd2(BD2) (Homo sapiens, UniProt P25440); assay: HTRF BET selectivity profile, Brd2(BD2); format: binding; details: read-out: Brd2(BD2) IC50
T2 construct: GST tagged bromodomain proteins were purchased from BPS Bioscience; purchased BPS Bioscience
Protocol: (§6) HTRF assays were performed in white 384 Well Small Volume™ HiBase Polystyrene Microplates (Greiner) with a total working volume of 20 μL. Compounds were dispensed, with 100 nL per well (0.5% final DMSO), from a concentration stock of 10 mM in 100% DMSO and with serial DMSO dilutions, using an Echo® 550 robot from the Access Labcyte platform (Labcyte) and based on the transfer of liquid by acoustic wave. Then, 19.5 μL of buffer is added, using a Multidrop Combi (Thermo Fisher Scientific). […] All HTRF reagents (donor and acceptor) were purchased from CisBio Bioassays and reconstituted according to the supplier protocols. The peptide was purchased from Genic Bio Synthetic. The BRD4(1) protein was produced and purified in the laboratory.
as §2, §3

[5] = target: T3, BRD4(BD1) (Homo sapiens, UniProt O60885); assay: HTRF assay, BRD4(BD1)/histone peptide interaction; format: binding; set-up: made in house; details: for IC50: HTRF; for Ratio 4-1 vs 4-2: selectivity Brd4(BD1) vs Brd4(BD2), HTRF IC50
[6] = target: Brd3(BD1) (Homo sapiens, UniProt Q15059); assay: HTRF BET selectivity profile, Brd3(BD1); format: binding; set-up: GST tagged bromodomain proteins were purchased from BPS Bioscience; purchased BPS Bioscience; details: for Ratio 3-1 vs 3-2: selectivity Brd3(BD1) vs Brd3(BD2), HTRF IC50
Protocol: as §6, §2, §3

[7] = target: T4, Brd4(BD2) (Homo sapiens, UniProt O60885); assay: HTRF BET selectivity profile, Brd4(BD2); format: binding
T4 construct: GST tagged bromodomain proteins were purchased from BPS Bioscience; purchased BPS Bioscience
Protocol: as §1, §2, §3

[8] = target: T5, Brd2(BD1) (Homo sapiens, UniProt P25440); assay: HTRF BET selectivity profile, Brd2(BD1); format: binding; details: for IC50: read-out: Brd2(BD1) IC50; for Ratio 2-1 vs 2-2: selectivity Brd2(BD1) vs Brd2(BD2), HTRF IC50
T5 construct: GST tagged bromodomain proteins were purchased from BPS Bioscience; purchased BPS Bioscience
Protocol: as §6, §2, §3

[9] = tested on: Molm14 cells; assay: Cell Titer-Glo cell viability assay, Molm14; format: cell-based; details: Homo sapiens, MOLM-14, 72 h, mean of three experiments, NA = IC50 > maximal concentration used
Protocol: as §4, §5

[10] = target: T3, BRD4(BD1); assay: Isothermal Titration Calorimetry; format: binding; details: ITC; read-out: Binding affinity (Kd) to BRD4(1) by Isothermal Titration Calorimetry
Protocol: FIG. 1. Isothermal Titration Calorimetry (ITC) of 43c. Thermogram (top) and non-linear least squares fit model of the integrated data (bottom) at 15° C. of Brd4 (BD1) […] as a function of the molar ratio of ligand to the protein.
ITC was used to evaluate the thermodynamics parameters of the binding between BRD4 (BD1) and the selected compounds. Titrations were carried out on a MicroCal ITC200 microcalorimeter (GE Healthcare, Piscataway, N.J.). Each experiment was designed using a titrant concentration (protein in the syringe generally between 100 and 400 μM) set 10 to 15 times the analyte concentration (compound in the cell generally between 10 and 40 μM) and using 13 injections at 25° C. A first small injection (generally 0.2 μL) was included in the titration protocol in order to remove air bubbles trapped in the syringe prior titration. Raw data were scaled after setting the zero to the titration saturation heat value. Integrated raw ITC data were fitted to a one site non-linear least squares fit model using the MicroCal Origin plugin as implemented in Origin 7 (Origin Lab). Finally, ΔG and TΔS values were calculated from the fitted ΔH and KA values using the equations ΔG=−R.T.inKA and ΔG=ΔH−TΔS.

[11] = target: T6, Brdt(BD1) (Homo sapiens, UniProt Q58F21); assay: HTRF BET selectivity profile, Brdt(BD1); format: binding
T6 construct: GST tagged bromodomain proteins were purchased from BPS Bioscience; purchased BPS Bioscience
Protocol: as §1, §2, §3

[12] = tested on: 61 bromodomains; assay: Thermal shift assay selectivity profile on 61 bromodomains; format: binding; details: compound at 25 μM
Protocol: FIG. 3. Thermal Shift Assay (TSA) of 43c. The evaluation was performed on 61 bromodomains. A cut-off at +/−3.5° C. was set.
TSA “Bromoscan” assays (Reaction Biology) were performed in 384 well RT-PCR plate (BioRad) with a total working volume of 15 μL. The “BromoMelT™, containing the 61 GST- or His-tagged-bromodomains, SYPRO® Orange and a mix compounds as control, was purchased from Reaction Biology. For each point, 3 μL of protein (1×) and 12 μL master mix (buffer+SYPRO® Orange+compound at 25 μM or control mix compounds or DMSO (0.5%)) were mixed in plate. The plate was placed in a CFX384 RTQPC (BioRad), and heated 10 seconds at 25° C., then the temperature was increased from 25° C. to 90° C., by increment of 0.5° C. every 30 seconds. The fluorescence was recorded using FRET filters.

[13] = mean of three experiments, NA = IC50 > 50 μM, read-out: Brd4(8D1) IC50
[14] = triplicates, NA = IC50 > maximal concentration of compound used

T2 sequence (P25440 344-453 limits assumed): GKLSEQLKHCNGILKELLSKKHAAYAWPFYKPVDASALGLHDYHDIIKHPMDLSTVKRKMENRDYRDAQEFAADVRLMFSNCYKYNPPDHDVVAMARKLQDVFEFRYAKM
T5 sequence (P25440 74-180 limits assumed): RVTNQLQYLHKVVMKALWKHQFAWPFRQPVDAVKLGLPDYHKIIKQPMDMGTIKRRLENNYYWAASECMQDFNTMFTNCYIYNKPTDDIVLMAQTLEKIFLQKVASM
Sequence of Brd3(BD1) (Q15059 34-140 limits assumed): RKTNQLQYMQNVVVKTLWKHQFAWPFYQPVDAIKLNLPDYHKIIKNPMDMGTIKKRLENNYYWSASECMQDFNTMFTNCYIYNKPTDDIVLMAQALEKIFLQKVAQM
T1 sequence (Q15059 306-415 limits assumed): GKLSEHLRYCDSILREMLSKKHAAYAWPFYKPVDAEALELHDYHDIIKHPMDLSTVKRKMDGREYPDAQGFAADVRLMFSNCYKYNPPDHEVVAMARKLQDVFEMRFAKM

IC50 [2]	IC50 [3]	IC50 [4]	IC50 [5, 13]	IC50 [5, 14]	Ratio 4-1 vs 4-2 [5]	IC50 [6]	Ratio 3-1 vs 3-2 [6]	IC50 [7]	IC50 [8]	Ratio 2-1 vs 2-2 [8]	IC50 [9]	Kd [10]	IC50 [11]	Structure (SMILES)	effect on c-Myc expression [1]	Bromodomain selectivity profile by thermal shift assay [12]
–	–	–	–	–	–	–	–	–	–	–	–	–	–	COc1cc2c(cc1-c1c(C)noc1C)ncc1[nH]c(=O)n([C@H](C)c3ccccn3)c12 [I-BET151]	strong downregulation of c-Myc	–
18.9 µM	6.9 µM	14.7 µM	0.814 µM	0.814 µM	15	1.6 µM	12	12.2 µM	5.47 µM	3	8.9 µM	1.1 µM	7.44 µM	CCn1cnc2c1c(=O)[nH]c(=O)n2Cc1ccc(CNS(=O)(=O)c2cccc(-c3ccccc3)c2)cc1 [Compound 29c]	–	–
3.16 µM	10.3 µM	2.49 µM	0.51 µM	0.51 µM	9	0.633 µM	5	4.59 µM	0.868 µM	3	9.2 µM	0.641 µM	1.18 µM	CCn1cnc2c1c(=O)[nH]c(=O)n2Cc1ccc(CNS(=O)(=O)c2ccc(Oc3ccccc3)cc2)cc1 [Compound 30c, N-(4-((7-ethyl-2,6-dioxo-1,2,6,7-tetrahydro-3H-purin-3-yl)methyl)benzyl)-4-phenoxybenzenesulfonamide]	–	BRD4(1) and BRD3(1) selective
17.4 µM	6.1 µM	23.5 µM	1.59 µM	1.6 µM	13	4.77 µM	4	21.2 µM	4.18 µM	7	14.8 µM	–	14 µM	CCn1cnc2c1c(=O)[nH]c(=O)n2Cc1ccc(CNS(=O)(=O)c2ccc3scnc3c2)cc1 [Compound 25c]	–	–
